pEC50, pIC50: −log10 of the molar value. Converted amounts (≈) assume the structure as drawn.
Legend:
U-937 = test: Anticancer activity against human U-937 cells assessed as cell growth inhibition; format: functional, cell-based
B16 [1] = test: Anticancer activity against mouse B16 cells assessed as cell growth inhibition; format: functional, cell-based
B16 [2] = test: Antitumor activity against mouse B16 cells implanted in mouse assessed as inhibition of lung tumor formation at 5 mg/kg, po measured after 10 days relative to control; format: functional; parameters: scale not given: the % may be the effect or the level left; details: time 10 day
Enterococcus = test: Antibacterial activity against vancomycin resistant Enterococcus incubated for 24 hrs by broth microdilution method; format: functional
Staphylococcus aureus = test: Antibacterial activity against methicillin resistant Staphylococcus aureus incubated for 24 hrs by broth microdilution method; format: functional
Histoplasma capsulatum = test: Antifungal activity against Histoplasma capsulatum; format: functional
Blastomyces dermatitidis = test: Antifungal activity against Blastomyces dermatitidis; format: functional
[3] = target: Prostaglandin G/H synthase 1 (Homo sapiens, UniProt P23219); test: Inhibition of COX-1 (unknown origin) using arachidonic acid as substrate assessed as PGH2 level preincubated for 5 mins followed by substrate addition and measured after 1 min by UHPLC-MS/MS analysis
Chain of Prostaglandin G/H synthase 1 (P23219 whole entry): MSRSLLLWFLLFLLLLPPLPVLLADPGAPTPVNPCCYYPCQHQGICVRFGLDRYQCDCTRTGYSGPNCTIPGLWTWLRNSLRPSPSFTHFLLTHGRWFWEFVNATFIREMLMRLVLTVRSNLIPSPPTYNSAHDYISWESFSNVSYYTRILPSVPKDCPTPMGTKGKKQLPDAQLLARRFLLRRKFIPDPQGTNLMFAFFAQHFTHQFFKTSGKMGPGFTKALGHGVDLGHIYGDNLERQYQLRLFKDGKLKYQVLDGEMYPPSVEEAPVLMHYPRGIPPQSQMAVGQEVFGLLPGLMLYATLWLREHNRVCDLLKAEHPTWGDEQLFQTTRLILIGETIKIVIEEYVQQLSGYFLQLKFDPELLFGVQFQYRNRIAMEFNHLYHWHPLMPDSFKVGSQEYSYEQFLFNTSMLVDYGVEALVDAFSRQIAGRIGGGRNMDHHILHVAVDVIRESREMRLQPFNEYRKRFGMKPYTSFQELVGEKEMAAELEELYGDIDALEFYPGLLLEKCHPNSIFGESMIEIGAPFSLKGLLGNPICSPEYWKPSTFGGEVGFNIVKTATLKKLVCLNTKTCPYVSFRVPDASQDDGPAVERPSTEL

[4] = Inhibition of Saccharomyces alpha-glucosidase using p-nitrophenyl-alpha-D-glucopyranoside as substrate assessed as substrate hydrolysis incubated for 15 mins by spectrophotometer analysis; parameters: species or system Saccharomyces sp.
Jurkat = test: Anticancer activity against human Jurkat T cells assessed as cell growth inhibition; format: functional, cell-based
HT-29 = test: Anticancer activity against human HT-29 cells assessed as cell growth inhibition; format: functional, cell-based

## C[C@@H]1CC[C@@H](c2ccoc2)N2C[C@@]3(CC[C@@H]12)CS[C@@]1(CC[C@H]2[C@H](C)CC[C@@H](c4ccoc4)N2[C@@H]1O)C3
U-937
  pIC50: 5.30
B16 [1]
  pIC50: 7.54
B16 [2]
  Activity: >90%

## C[C@@H]1CC[C@@H](c2ccoc2)N2[C@H]1CC[C@@]1(CS[C@@]3(CC[C@H]4[C@H](C)CC[C@@H](c5ccoc5)N4[C@@H]3O)C1)[C@H]2O
Enterococcus
  MIC: 2 µg/mL (≈ 3.8 µM)
Staphylococcus aureus
  MIC: 1 µg/mL (≈ 1.9 µM)
Histoplasma capsulatum
  Activity: 100 µg/mL
Blastomyces dermatitidis
  Activity: 100 µg/mL
U-937
  pIC50: 5.30
B16 [1]
  pIC50: 7.06

## C[C@@H]1CC[C@@H](c2ccoc2)N2[C@H]1CC[C@@]1(CS[C@]3(CC[C@H]4[C@H](C)CC[C@@H](c5ccoc5)N4[C@@H]3O)C1)[C@H]2O
U-937
  pIC50: 5.60

## C[C@H]1CC[C@H](c2ccccc2)N2[C@@H]1CC[C@](C)(Sc1ccccc1)[C@@H]2O
U-937
  pIC50: 5.30

## C/C=C/[S+]([O-])SC1SC(O)C(C)C1C (centres undefined)
[3]
  pIC50: 7.28
[4]
  pIC50: 6.15

## C[C@H]1CC[C@H](c2ccoc2)N2[C@@H]1CC[C@]1(CS[C@]3(CC[C@@H]4[C@@H](C)CC[C@H](c5ccoc5)N4[C@H]3O)C1)[C@@H]2O
U-937
  pIC50: 5.30

## C[C@@H]1CC[C@@H](c2ccoc2)N2[C@H]1CC[C@]1(CS[C@@]3(CC[C@H]4[C@H](C)CC[C@@H](c5ccoc5)N4[C@@H]3O)C1)[C@H]2O
U-937
  pIC50: 5.60

## CC1CCC(c2ccoc2)N2C1CCC1(CSC3(CCC4C(C)CCC(c5ccoc5)N4C3O)C1)C2O (centres undefined)
Jurkat
  pEC50: 6.58
HT-29
  pEC50: 6.26

## C[C@H]1CC[C@H](c2ccccc2)N2[C@@H]1CC[C@@](C)(Sc1ccccc1)[C@@H]2O
U-937
  pIC50: 5.60

## C[C@H]1CC[C@H](c2ccoc2)N2[C@@H]1CC[C@]1(CS[C@@]3(CC[C@@H]4[C@@H](C)CC[C@H](c5ccoc5)N4[C@H]3O)C1)[C@@H]2O
U-937
  pIC50: 5.30

## CS[C@@]1(C)CC[C@@H]2[C@@H](C)CC[C@H](c3ccc(F)cc3)N2[C@H]1O
U-937
  pIC50: 5.30

## C=CC[C@]1(SC)CC[C@@H]2[C@@H](C)CC[C@H](c3ccc(F)cc3)N2[C@H]1O
U-937
  pIC50: 5.30

## C#CC[C@]1(SC)CC[C@@H]2[C@@H](C)CC[C@H](c3ccccc3)N2[C@H]1O
U-937
  pIC50: 5.60

## FC(F)(F)c1ccc(C[N+]2=CC3(CCC2)CSC2(C=[N+](Cc4ccc(C(F)(F)F)cc4)CCC2)C3)cc1 (centres undefined)
Jurkat
  pEC50: 5.74
HT-29
  pEC50: 5.62

## CS[C@]1(C)CC[C@@H]2[C@@H](C)CC[C@H](c3ccccc3)N2[C@H]1O
U-937
  pIC50: 6.20

## C[C@H]1CC[C@H](c2ccoc2)N2[C@@H]1CC[C@@]1(CS[C@]3(CC[C@@H]4[C@@H](C)CC[C@H](c5ccoc5)N4[C@H]3O)C1)[C@@H]2O
U-937
  pIC50: 5.60

## C[C@@H]1CC[C@@H](c2ccccc2)N2[C@@H](O)[C@@](C)(Sc3ccccc3)CC[C@@H]12
U-937
  pIC50: 5.60

## COc1ccc([C@H]2CC[C@H](C)[C@H]3CCC(SC)(SC)[C@H](O)N23)cc1
U-937
  pIC50: 5.30

## CSC1(SC)CC[C@H]2[C@H](C)CC[C@@H](c3ccccc3)N2[C@@H]1O
U-937
  pIC50: 5.00

## CS[C@@]1(C)CC[C@@H]2[C@@H](C)CC[C@H](c3ccccc3)N2[C@H]1O
U-937
  pIC50: 5.30

## CS[C@]1(C)CC[C@@H]2[C@@H](C)CC[C@H](c3ccc(F)cc3)N2[C@H]1O
U-937
  pIC50: 5.90

## CSC1(SC)CC[C@@H]2[C@@H](C)CC[C@H](c3ccc(F)cc3)N2[C@H]1O
U-937
  pIC50: 5.30

## C1=[N+](CCCCc2ccccc2)CCCC12CCC2
Jurkat
  pEC50: 5.02
HT-29
  pEC50: 4.37

## C[C@H]1CC[C@H](c2ccoc2)N2C[C@]3(CC[C@H]12)CS[C@]1(CC[C@@H]2[C@@H](C)CC[C@H](c4ccoc4)N2[C@H]1O)C3
U-937
  pIC50: 5.30

## C1=[N+](CCCCc2ccccc2)CCCC12CCCO2 (centres undefined)
Jurkat
  pEC50: 4.42
HT-29
  pEC50: 4.06

## C1=[N+](Cc2ccccc2)CCCC12CSC1(C=[N+](Cc3ccccc3)CCC1)C2 (centres undefined)
Jurkat
  pEC50: 5.80
HT-29
  pEC50: 5.64

## C#CC[C@@]1(SC)CC[C@@H]2[C@@H](C)CC[C@H](c3ccccc3)N2[C@H]1O
U-937
  pIC50: 5.60

## COc1ccc([C@H]2CC[C@H](C)[C@H]3CC[C@@](C)(SC)[C@H](O)N23)cc1
U-937
  pIC50: 5.90

## COc1ccc([C@H]2CC[C@H](C)[C@H]3CC[C@](C)(SC)[C@H](O)N23)cc1
U-937
  pIC50: 5.30

## C[C@@H]1CC[C@@H](c2ccoc2)N2[C@H]1CC[C@]1(CS[C@]3(CC[C@H]4[C@H](C)CC[C@@H](c5ccoc5)N4[C@@H]3O)C1)[C@H]2O
U-937
  pIC50: 5.90

## CSC1(SC)CC[C@@H]2[C@@H](C)CC[C@H](c3ccccc3)N2[C@H]1O
U-937
  pIC50: 5.90

## C1=[N+](CCCCc2ccccc2)CCCC12CCCS2 (centres undefined)
Jurkat
  pEC50: 5.20
HT-29
  pEC50: 4.92

## C=C1C=[N+](CCCCc2ccccc2)CCC1
Jurkat
  pEC50: 4.77
HT-29
  pEC50: 4.35

## C1=[N+](CCCCc2ccccc2)CCCC12CSC1(C=[N+](CCCCc3ccccc3)CCC1)C2 (centres undefined)
Jurkat
  pEC50: 5.92
HT-29
  pEC50: 5.68

## COc1ccc(C[N+]2=CC3(CCC2)CSC2(C=[N+](Cc4ccc(OC)cc4)CCC2)C3)cc1 (centres undefined)
Jurkat
  pEC50: 5.74
HT-29
  pEC50: 5.55

## C[C@H]1CC[C@H](c2ccoc2)N2[C@@H]1CC[C@@]1(CS[C@@]3(CC[C@@H]4[C@@H](C)CC[C@H](c5ccoc5)N4[C@H]3O)C1)[C@@H]2O
U-937
  pIC50: 5.60

## CSC1(SC)CCC2C(C)CCC(c3ccccc3)N2C1O (racemic)
U-937
  pIC50: 5.30

## CC1CCC(c2ccccc2)N2C1CCC(C)(Sc1ccccc1)C2O (racemic)
U-937
  pIC50: 5.30

## C#CCC1(SC)CCC2C(C)CCC(c3ccccc3)N2C1O (racemic)
U-937
  pIC50: 5.30

## CSC1(C)CCC2C(C)CCC(c3ccccc3)N2C1O (racemic)
U-937
  pIC50: 5.52

## C[C@@H]1CC[C@@H](c2ccoc2)N2C[C@@]3(CC[C@@H]12)CS[C@]1(CC[C@H]2[C@H](C)CC[C@@H](c4ccoc4)N2[C@@H]1O)C3 [6-HYDROXYTHIONUPHLUTINE B]
B16 [1]
  pIC50: 6.44

## NCC[C@H](O)C(=O)N[C@@H]1C[C@H](N)[C@@H](O[C@H]2O[C@H](CN)CC[C@H]2N)[C@H](O)[C@H]1O[C@H]1O[C@H](CO)[C@@H](O)[C@H](N)[C@H]1O [ARBEKACIN]
Staphylococcus aureus
  MIC: 0.5 µg/mL (≈ 0.905 µM)

## CC(=O)NC[C@H]1CN(c2ccc(N3CCOCC3)c(F)c2)C(=O)O1 [LINEZOLID]
Staphylococcus aureus
  MIC: 1 µg/mL (≈ 2.96 µM)

## CCn1cc(C(=O)O)c(=O)c2cc(F)c(N3CCNCC3)cc21 [NORFLOXACIN]
Enterococcus
  MIC: 4 µg/mL (≈ 12.5 µM)
Staphylococcus aureus
  MIC: 0.5 µg/mL (≈ 1.57 µM)

## Cc1onc(-c2ccccc2)c1C(=O)N[C@@H]1C(=O)N2[C@@H]1SC(C)(C)[C@@H]2C(=O)O [OXACILLIN]
Staphylococcus aureus
  MIC: 0.06 µg/mL (≈ 0.149 µM)

## CN[C@H](CC(C)C)C(=O)N[C@H]1C(=O)N[C@@H](CC(N)=O)C(=O)N[C@H]2C(=O)N[C@H]3C(=O)N[C@H](C(=O)N[C@H](C(=O)O)c4cc(O)cc(O)c4-c4cc3ccc4O)[C@H](O)c3ccc(c(Cl)c3)Oc3cc2cc(c3O[C@@H]2O[C@H](CO)[C@@H](O)[C@H](O)[C@H]2O[C@H]2C[C@](C)(N)[C@H](O)[C@H](C)O2)Oc2ccc(cc2Cl)[C@H]1O [VANCOMYCIN]
Enterococcus
  MIC: 0.5 µg/mL (≈ 0.345 µM)

From ChEMBL document CHEMBL5149998, “Synthetic access to thiolane-based therapeutics and biological activity studies” (Eur J Med Chem, 2021)
